Source: patent publication US9260759B2, “Pyrazoloanthrone and derivatives thereof for the treatment of cancers expressing MISRII” (The General Hospital Corporation, priority 2007, dated 2016)
Where a chain is given by its changes, count along the chain named. Like-named read-outs stand apart in the source and are kept apart here.

Assays:
rat MISRII = molecular target: T1, rat MISRII (Rattus norvegicus, UniProt Q62893); assay: BRE-luciferase reporter assay in COS7 cells transfected with MISRII; assay type: cell-based
T1 construct: expressed in transfected cells; host or cells: COS7
T1 sequence (Q62893 18-557): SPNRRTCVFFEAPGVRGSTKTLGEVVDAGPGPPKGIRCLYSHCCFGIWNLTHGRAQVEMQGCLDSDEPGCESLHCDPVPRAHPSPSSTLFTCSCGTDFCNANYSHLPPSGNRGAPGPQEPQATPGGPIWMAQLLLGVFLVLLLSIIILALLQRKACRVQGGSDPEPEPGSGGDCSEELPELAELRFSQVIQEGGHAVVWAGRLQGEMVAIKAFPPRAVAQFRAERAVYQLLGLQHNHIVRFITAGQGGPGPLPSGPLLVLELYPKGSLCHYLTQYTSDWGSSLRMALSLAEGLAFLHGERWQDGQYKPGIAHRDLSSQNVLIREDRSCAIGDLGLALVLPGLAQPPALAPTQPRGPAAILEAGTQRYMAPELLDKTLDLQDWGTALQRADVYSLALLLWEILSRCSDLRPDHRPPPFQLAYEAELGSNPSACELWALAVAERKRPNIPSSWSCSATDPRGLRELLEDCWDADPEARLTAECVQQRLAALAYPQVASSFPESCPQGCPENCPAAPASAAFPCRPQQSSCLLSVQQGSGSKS
Text: COS7 cells were transiently transfected with MISRH, BRE-Luciferase and phRL-CMV. […] Control cells were transfected with a control plasmid (EGFP-N1 plasmid) instead of the receptor plasmid to keep the total DNA transfected constant. The results shown are the fold-induction over vehicle treated cells and normalized to phRL-CMV expression to correct for variations in cell number and transfection efficiency. […] The results represent the mean values from three independent experiments performed in triplicates (Error bars represent SEM, *p<0.05, **p<0.001).
To identify molecules that interact with the MISRII, we developed a reporter assay where binding to MISRII activates a firefly luciferase reporter driven by the BMP-responsive element (BRE) promoter kindly provided by Dr. Peter ten Dijke (The Netherlands Cancer Institute, The Netherlands) The BMP promoter region on mouse M. mus is located on chromosome 2 (Chr2) and corresponds to RefSeq No: NT—039207.6 93504644-93506272 (SEQ ID NO:1). The BRE-luciferase reporter (Korchynskyi and ten Dijke, 2002, Logeart-Avramoglou, 2006) has multiple optimized BMP response elements (3 SBE, 7 GC, and 4 CAGC) driving the expression of the firefly luciferase. This reporter construct together with a control Renilla luciferase reporter phRL-CMV (Promega, Madison Wis.) and a rat MISRII cDNA expression construct (Teixeira, 1996) were transiently transfected into COST cells and plated in 384 well plates. Primary screens were performed at the Harvard Institute of Chemistry and Cell Biology screening facility. Compounds from chosen libraries were added at a volume of 100 nl at 5 mg/ml concentration in DMSO into 30 μl cell media and cultured for 24 h at 37° C., after which the luciferase activity was measured with reagents from Promega according to the manufacturer's instructions. A hit was identified as causing a fold induction over the plate median and each compound was tested in duplicate in separate plates. MIS was used to control for intra- and inter-assay variability.
COS7 cells were plated at a density of 5000 cells/well in 96-well plates for secondary screens. The day after plating cells were transfected with rat MISRII receptor or EGFP-N1 (Clontech, Mountain View Calif.) together with BRE firefly luciferase reporter construct and phRL-CMV using TransIT-LT1 transfection reagent (Mirus Bio Corporation, Madison Wis.). […] Results were obtained using the Dual Luciferase reporter assay according to the manufacturer's instructions (Promega). Plates were read in a Wallac Victor2 luminometer (PerkinElmer, Wellesley Mass.).

c-jun = assay: Western blot of anisomycin-induced c-jun phosphorylation in MOVCAR cells; assay type: cell-based, mouse
Procedure: (§1) The results are representative of several experiments.
(§2) Cells were washed in PBS and lysates were prepared in 1× Passive lysis buffer (PLB) provided with the Dual luciferase reporter assay kit (Promega). The lysates were cleared by centrifugation and the protein concentration was determined by Bradford assay (Bio-Rad, Hercules Calif.). […] of protein were loaded onto a NuPAGE 4-12% Bis-Tris gradient gel with MOPS-buffer (Invitrogen, Carlsbad Calif.) for polyacrylamide gel electrophoresis. Following transfer to a nitrocellulose by electroblotting, the membrane was blocked in 5% milk Tris-buffered saline/Tween20 (TBS-T) for 1 h at room temperature and incubated with primary antibody (pJNK, c-jun and phosph c-jun antibodies were purchased from Cell Signalling, Danvers, Mass.; amd JNK antibody was published from Santa Cruz Biotechnology, Calif.) overnight at 4° C. in 5% BSA followed by incubation with secondary horseradish peroxidase conjugated anti-rabbit antibody (Jackson ImmunoResearch, Westgrove Pa.) for 1 h. Immunoreactive proteins were detected by enhanced chemiluminescence (Pierce, Rockford Ill.). Anisomycin was purchased from Calbiochem.
(§3) The known Jun kinase activator anisomycin was used as a positive control (Hazzalin, 1998). […] Further, MIS had no effect on phosphorylation of JNK by anisomycin.

MOVCAR7 cells = assay: MTT proliferation assay, MOVCAR7 cells; assay type: cell-based; details: Mus musculus, 168 h
Procedure: Cells were plated in 96-well plates and treated the day after. Seven days after plating the cell survival was measured using 3-(4,5-dimethylthiazol-2-yl)-2,5-diphenyltetrazolium bromide substrate and measuring the absorbance at 550 nm.
(Connolly, 2003). The 4306 cells were provided by Dr. Daniela Dinulescu, Brigham and Women's (Boston) (30). Cells were plated at a density of 1000 cells/well in 96-well plates and treated 24 h later. The cell proliferation was measured after 7 days by registering the absorbance at 550 nm. Paclitaxel was manufactured by Ivax Pharmaceuticals and obtained from the MGH pharmacy.
The cells were treated for 7 days and the proliferation was measured by spectrophotometry. To exclude cytotoxic effects on the cells unrelated to MIS signal transduction, we used untransfected COS7 cells as a negative control. […] Paclitaxel is used in treatment of a wide range of tumors, but the side effects can be debilitating (Pieretti-Vanmarcke, 2006a, Pieretti-Vanmarcke, 2006b).

JNK = assay: Immunoblot of JNK phosphorylation in MOVCAR7 cells; assay type: cell-based, mouse
Procedure: as §1, §2, §3

MISRIIK228R = molecular target: T2, MISRIIK228R (Rattus norvegicus, UniProt Q62893, K228R); assay: BRE-luciferase reporter assay in COS7 cells with kinase-deficient receptor MISRIIK228R; assay type: cell-based; details: K228R receptor overexpressed, COS7, 24 hrs, agent alone
T2 construct: expressed in transfected cells; host or cells: COS7
T2 sequence (Q62893 18-557 K228R): T1 sequence (Q62893 18-557) with K211R
Text: Results shown represent the mean values from four independent experiments performed in triplicates (Error bars represent standard error of the mean, *, P<0.05).

endogenous MISRII = molecular target: T3, endogenous MISRII (Mus musculus, UniProt Q8K592); assay: BRE-luciferase reporter assay in MOVCAR7 cells expressing endogenous MISRII; assay type: cell-based; details: 5 μg/ml MIS, MOVCAR7, 24 h
T3 construct: a mouse ovarian cancer cell line, MOVCAR7, that expresses endogenous MISRII; endogenous in cells; host or cells: MOVCAR7 (mouse ovarian cancer cell line)
T3 sequence (Q8K592 16-568): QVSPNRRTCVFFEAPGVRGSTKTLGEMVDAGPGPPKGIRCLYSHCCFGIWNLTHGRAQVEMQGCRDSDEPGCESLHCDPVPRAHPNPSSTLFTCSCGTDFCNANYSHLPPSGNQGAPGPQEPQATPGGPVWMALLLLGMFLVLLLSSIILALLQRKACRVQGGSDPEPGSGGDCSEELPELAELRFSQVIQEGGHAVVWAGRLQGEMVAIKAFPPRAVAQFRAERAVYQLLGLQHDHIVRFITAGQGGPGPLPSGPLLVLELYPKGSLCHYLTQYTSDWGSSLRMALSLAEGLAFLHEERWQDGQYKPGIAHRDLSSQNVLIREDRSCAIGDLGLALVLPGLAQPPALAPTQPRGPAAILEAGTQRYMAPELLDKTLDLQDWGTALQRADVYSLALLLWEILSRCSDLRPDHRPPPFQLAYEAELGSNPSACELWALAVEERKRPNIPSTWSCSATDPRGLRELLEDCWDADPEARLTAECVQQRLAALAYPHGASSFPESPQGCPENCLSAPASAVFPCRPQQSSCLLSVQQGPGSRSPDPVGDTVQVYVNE

CCOc1nc(NC(=O)Cc2cc(OC)ccc2OC)cc(N)c1C#N [JNK inhibitor VIII, reference compound]
effect on BRE-luciferase when combined with MIS (rat MISRII; JNK inhibitor VIII 5, 25 or 50 μM with MIS): no further effect
activation of BRE-luciferase (rat MISRII; JNK inhibitor VIII at 5, 25 or 50 μM alone, COS7): did not result in any activation
inhibiting phosphorylation of c-jun, compared with SP600125 (c-jun): much more effective
c-jun phosphorylation induced by 500 nM anisomycin (c-jun; pre-treatment 25 uM): inhibited

CC(=O)O[C@H]1C(=O)[C@@]2(C)[C@H]([C@H](OC(=O)c3ccccc3)[C@]3(O)C[C@H](OC(=O)[C@H](O)[C@@H](NC(=O)c4ccccc4)c4ccccc4)C(C)=C1C3(C)C)[C@]1(OC(C)=O)CO[C@@H]1C[C@@H]2O [paclitaxel]
IC50 (MOVCAR7 cells; read-out: IC50 of paclitaxel combined with SP600125): 0.21 nM
IC50 (MOVCAR7 cells; MOVCAR7, 7 days, MTT, read-out: IC50 of paclitaxel alone): 0.81 nM

COc1ccc(C[C@H]2NC[C@H](O)[C@H]2OC(C)=O)cc1 [anisomycin, reference compound]
phosphorylation of JNK (positive control) (JNK; 500 nM anisomycin, 30 min): strong activation

B1: MIS: Recombinant human MIS prepared from Chinese hamster ovary cells stably transfected with the human MIS gene (protein)
chain: LRAEEPAVGTSGLIFREDLDWPPGSPQEPLCLVALGGDSNGSSSPLRVVGALSAYEQAFLGAVQRARWGPRDLATFGVCNTGDRQAALPSLRRLGAWLRDPGGQRLVVLHLEEVTWEPTPSLRFQEPPPGGAGPPELALLVLYPGPGPEVTVTRAGLPGAQSLCPSRDTRYLVLAVDRPAGAWRGSGLALTLQPRGEDSRLSTARLQALLFGDDHRCFTRMTPALLLLPRSEPAPLPAHGQLDTVPFPPPRPSAELEESPPSADPFLETLTRLVRALRVPPARASAPRLALDPDALAGFPQGLVNLSDPAALERLLDGEEPLLLLLRPTAATTGDPAPLHDPTSAPWATALARRVAAELQAAAAELRSLPGLPPATAPLLARLLALCPGGPGGLGDPLRALLLLKALQGLRVEWRGRDPRGPGRAQRSAGATAADGPCALRELSVDLRAERSVLIPETYQANNCQGVCGWPQSDRNPRYGNHVVLLLKMQVRGAALARPPCCVPTAYAGKLLISLSEERISAHHVPNMVATECGCR
BRE-luciferase expression, fold induction (rat MISRII; MIS 0.5 ug/ml alone, MISRII-transfected COS7, 24 h): greater than ten-fold
activation of BRE-luciferase with kinase-deficient receptor (MISRIIK228R): neither MIS nor SP600125 activates BRE-luciferase
increase of BRE activity compared to untreated cells (endogenous MISRII): 2 fold
phosphorylation of JNK (JNK; 5 μg/ml MIS, 30 min): no phosphorylation beyond background
effect of MIS on phosphorylation of JNK by anisomycin (JNK; MIS with anisomycin): no effect
